Source: publication doi:10.1101/2022.01.18.476765v1, “How a Formate Dehydrogenase Responds to Oxygen: Unexpected O2 Insensitivity of an Enzyme Harboring Tungstopterin, Selenocysteine, and [4Fe-4S] Clusters” (biorxiv, 2022)

Tests used:
[1] = target: T1, DvH-FDH2 (Nitratidesulfovibrio vulgaris, UniProt Q728X0); assay: PES/DCPIP reduction at […] nm, global fit of full progress curves; assay type: biochemical; details: in air; 1 mM PES / 93 μM DCPIP; 50 mM Tris pH 8.0; Km calculated from kcat and kcat/Km
T1 construct: gene fdnG-2; heterodimer, W-bis-pyranopterin, Sec, four [4Fe-4S]; Strep-tag II at C-terminus of large subunit, kept; periplasmic, Tat signal peptide on large subunit; homologous expression in DvH JW2127 (all fdh loci deleted), strain CSR21271; aerobic purification; with Formate dehydrogenase, beta (small) subunit, iron-sulfur
T1 sequence (Q728X0 36-1003): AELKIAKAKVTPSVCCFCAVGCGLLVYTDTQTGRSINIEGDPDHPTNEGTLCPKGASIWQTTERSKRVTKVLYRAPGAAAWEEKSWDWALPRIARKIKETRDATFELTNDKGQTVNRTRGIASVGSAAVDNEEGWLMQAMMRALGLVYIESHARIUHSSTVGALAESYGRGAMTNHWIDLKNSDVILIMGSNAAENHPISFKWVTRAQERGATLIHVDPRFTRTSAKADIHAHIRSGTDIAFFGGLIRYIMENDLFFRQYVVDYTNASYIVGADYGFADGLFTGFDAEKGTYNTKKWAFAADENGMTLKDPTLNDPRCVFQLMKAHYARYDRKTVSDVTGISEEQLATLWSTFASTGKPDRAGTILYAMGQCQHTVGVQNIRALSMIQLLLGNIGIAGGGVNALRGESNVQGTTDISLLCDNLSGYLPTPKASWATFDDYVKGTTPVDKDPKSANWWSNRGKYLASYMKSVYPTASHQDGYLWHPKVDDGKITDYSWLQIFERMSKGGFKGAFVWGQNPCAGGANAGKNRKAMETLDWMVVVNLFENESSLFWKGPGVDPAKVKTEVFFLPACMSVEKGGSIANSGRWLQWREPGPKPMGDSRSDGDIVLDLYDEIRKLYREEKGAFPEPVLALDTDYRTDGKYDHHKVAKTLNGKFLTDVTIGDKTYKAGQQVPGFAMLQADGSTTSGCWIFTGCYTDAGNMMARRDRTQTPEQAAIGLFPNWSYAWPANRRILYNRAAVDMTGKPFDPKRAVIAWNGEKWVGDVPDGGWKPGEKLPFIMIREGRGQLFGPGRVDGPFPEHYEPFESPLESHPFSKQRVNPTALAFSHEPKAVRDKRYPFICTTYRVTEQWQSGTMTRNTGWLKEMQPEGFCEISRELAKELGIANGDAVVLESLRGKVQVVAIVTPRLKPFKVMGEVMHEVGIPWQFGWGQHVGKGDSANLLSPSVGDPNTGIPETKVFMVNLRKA
T1 sequence (Q728X1 1-260 partner): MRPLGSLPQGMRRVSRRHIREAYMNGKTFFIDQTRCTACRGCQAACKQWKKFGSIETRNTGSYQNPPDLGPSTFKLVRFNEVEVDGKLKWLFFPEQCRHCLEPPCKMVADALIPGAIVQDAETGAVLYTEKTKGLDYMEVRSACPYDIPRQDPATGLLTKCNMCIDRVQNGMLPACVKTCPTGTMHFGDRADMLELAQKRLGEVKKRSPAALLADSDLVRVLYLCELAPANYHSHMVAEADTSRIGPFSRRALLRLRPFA

[2] = target: T1, DvH-FDH2; assay: PES/DCPIP reduction at […] nm, inhibition of formate oxidation; assay type: biochemical; details: formate with PES/DCPIP; 50 mM Tris pH 8.0; with and without O2

Row | SMILES | Km [1] [µM] | inhibition profile [2]
1 | O=CO [formate] | 4.5 ± 0.4 | –
2 | O=[N+]([O-])O [nitrate] | – | nitrate is far less effective
